Laboratory results from article PMC7343857, “New natural agonists of the transient receptor potential Ankyrin 1 (TRPA1) channel” (Scientific Reports, 2020).
Read-outs that look alike come from different tables or passages of the source.

Biological target: T1, hTRPA1 (Homo sapiens, UniProt O75762)
T1 construct: gene TRPA1
Assay: ratiometric calcium imaging and whole-cell patch clamp in CHO cells with inducible hTRPA1; non-induced cells as control
Type: cell-based

T1 sequence (O75762 whole entry): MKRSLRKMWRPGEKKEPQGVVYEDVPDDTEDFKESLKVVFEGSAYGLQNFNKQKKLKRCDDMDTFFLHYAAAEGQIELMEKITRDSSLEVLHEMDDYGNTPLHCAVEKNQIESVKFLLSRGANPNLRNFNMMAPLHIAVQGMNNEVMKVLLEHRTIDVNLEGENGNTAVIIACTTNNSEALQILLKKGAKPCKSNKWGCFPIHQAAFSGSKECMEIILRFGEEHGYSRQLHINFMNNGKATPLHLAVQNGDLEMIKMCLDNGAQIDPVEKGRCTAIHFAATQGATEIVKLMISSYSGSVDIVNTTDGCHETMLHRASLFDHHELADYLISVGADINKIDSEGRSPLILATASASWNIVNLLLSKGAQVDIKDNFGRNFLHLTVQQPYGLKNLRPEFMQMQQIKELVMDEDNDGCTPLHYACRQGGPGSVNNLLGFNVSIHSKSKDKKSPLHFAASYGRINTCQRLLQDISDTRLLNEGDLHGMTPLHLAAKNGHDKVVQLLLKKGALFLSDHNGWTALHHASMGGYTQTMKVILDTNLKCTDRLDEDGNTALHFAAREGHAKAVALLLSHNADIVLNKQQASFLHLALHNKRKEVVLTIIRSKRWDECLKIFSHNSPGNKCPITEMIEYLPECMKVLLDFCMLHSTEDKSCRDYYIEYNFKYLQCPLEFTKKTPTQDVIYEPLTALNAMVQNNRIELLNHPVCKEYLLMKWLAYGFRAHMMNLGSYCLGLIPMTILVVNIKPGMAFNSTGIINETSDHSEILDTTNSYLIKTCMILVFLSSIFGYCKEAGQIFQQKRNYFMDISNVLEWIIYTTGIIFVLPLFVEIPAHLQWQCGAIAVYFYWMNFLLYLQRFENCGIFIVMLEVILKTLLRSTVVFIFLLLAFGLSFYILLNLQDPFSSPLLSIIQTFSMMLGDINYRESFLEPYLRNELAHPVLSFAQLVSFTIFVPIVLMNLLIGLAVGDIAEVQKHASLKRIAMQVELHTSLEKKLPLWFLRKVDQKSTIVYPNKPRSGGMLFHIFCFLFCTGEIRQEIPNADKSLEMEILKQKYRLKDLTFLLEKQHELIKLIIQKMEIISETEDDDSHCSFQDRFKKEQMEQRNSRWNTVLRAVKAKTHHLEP

SMILES	EC50 (read-out: EC50)	EC50
C/C=C(\C)C=O [tiglic aldehyde]	1490 µM	–
CC(C)c1ccc(C=O)cc1 [cuminaldehyde]	720 µM	–
COc1ccc(C=O)cc1 [p-anisaldehyde]	–	910 µM
